Measured values as given in patent US10815457B2, “Active CXCR4+ immune cells and methods for their production and use” (UNIVERSITY OF PITTSBURGH—OF THE COMMONWEALTH SYSTEM OF …, priority 2014, dated 2020).
Entries after “also recorded” stand apart in the source; their conditions may differ.

Tests used:
CXCR4 on NK cells = assay: CXCR4 expression on IL-12+IL-15-activated NK cells, by flow cytometry; type: cell-based; details: overnight with IL-12p70 (20 ng/ml) and IL-15 (20 ng/ml), 200 μM CoCl2
Experimental: Negatively Isolated (EasySep) NK cells were cultured overnight with NK cell activators, IL-12p70 (20 ng/ml) and IL-15 (20 ng/ml), in absence or presence of 200 μM CoCl2 (Hypoxia mimic; HIF1α activator). Absolute numbers (A) and percentage (B) of CXCR4 NK cells are calculated by flow cytometry and are depicted in the figure.

[1] = system: CXCR4+/GZMB+ CD8+ T cells; assay: FACS staining for CXCR4 and GZMB in ex vivo induced CTLs exposed to a hypoxia mimic; type: cell-based, human
[2] = system: CXCL12-responsive GZMB+ CD8+ T cells; assay: Chemotaxis of GZMB+ CD8+ T cells to recombinant CXCL12 (transwell); type: cell-based, human; details: 50 ng/ml CXCL12; cells primed with CD3/CD28 + IL-12 or type-1 polarized DCs, then DMOG

Structure (SMILES): [Cl][Co][Cl] [CoCl2, cobalt chloride]
- CXCR4 expression on NK cells (absolute numbers and percentage) (CXCR4 on NK cells): increases CXCR4 expression

Structure (SMILES): COC(=O)CNC(=O)C(=O)OC [DMOG, dimethyloxalylglycine]
- CXCR4 expression (CXCR4+/GZMB+ double positive CD8+ T cells) ([1]; CD3-CD28 beads +/- IL-12 (5 ng/ml) 6 days or type-1 polarized DCs, then 3 days with 200 μM DMOG): promote high levels of CXCR4; also recorded: increases CXCR4 expression
- intracellular GZMB expression in arising effector cells ([1]; CD8+ T cells primed in type-1-polarizing conditions, DMOG): without affecting the intracellular GZMB expression
- responsiveness to CXCL12 (migration of GZMB+ CD8+ T cells) [2]: highest migration of GZMB^+ CTL; also recorded: increases CXCR4 expression and responsiveness to CXCL12
